Test [1] relates to E. coli mutants with single substitutions in RNAP β′ or β subunit. In kind it is cell-based.
Another test relates to E. coli DH21f2tolC. In kind it is cell-based. Particulars: assessed with E. coli DH21f2tolC; J.M. and R.H.E., unpublished.
The target in test [2] is T1, Myx^r RNAP ([Arg345]β′-RNAP) (Escherichia coli, UniProt P0A8T7+P0A8V2, K345R). In kind it is biochemical, E. coli.
The target of test [3] is T. thermophilus RNAP holoenzyme (Thermus thermophilus, UniProt Q8RQE8+Q8RQE9). In kind it is biochemical. The settings on record: read-out: IC50, inhibition of T. thermophilus RNAP holoenzyme.
Test [4] has as its target T2, wild-type RNAP (Escherichia coli, UniProt P0A8T7+P0A8V2).
The target in test [5] is T2, wild-type RNAP. The source holds these as a separate data set.
Test [6] deals with T1, Myx^r RNAP ([Arg345]β′-RNAP).
For a further test, the system named is Enterobacter cloacae. The settings on record: cited from earlier work.
Another test deals with bacterial RNAP. The settings on record: read-out: IC50, inhibition of bacterial RNAP; cited from earlier work.
For another test, the system named is eukaryotic RNAP II. The settings on record: cited from earlier work.
In another test the test system is Staphylococcus aureus. The settings on record: ref Irschik et al., 1995; J.M. and R.H.E., unpublished; cited from earlier work.
Test [7] concerns Escherichia coli DH21tolC. Particulars: ref Irschik et al., 1995; J.M. and R.H.E., unpublished; cited from earlier work.
Test [8] concerns E. coli with wild-type RNAP β′ and wild-type RNAP β. As to the kind of experiment: microbe, parasite or virus in culture. In kind it is cell-based. Particulars: Escherichia coli.

The structures appear in SMILES notation. ≈ marks a conversion by molar mass, not a printed value. Like-named read-outs stand apart in the source and are kept apart here. Where only a bound is given, the exact number is not on record here.

Broadly, the IC50 is the concentration needed to halve the response being measured. For the compound `CCC/C(C)=C/C=C(\C)C(=O)c1c(O)cc([C@H](C)CC/C=C/NC(=O)OC)oc1=O` [Myx, myxopyronin A], the entries for the “increase in MIC” value in test [1] (all four Myx^r mutants from random mutagenesis (Table S1)) and in test [1] (three of four Myx^r mutants from random mutagenesis (Table S1)) were at least 2 fold and at least 32 fold, respectively. The bacteriocidal activity result with E. coli DH21f2tolC is given as “bacteriocidal”. Also, the “inhibition of transcription with Myx^r RNAP” value in test [2] is listed as “abrogates inhibition”. The IC50 in [3] was 20 µM; on wild-type RNAP [4] (read-out: IC50, inhibition of formation of abortive products, run-off transcription, promoter DNA fragment) it was 1.7 ± 0.6 µM; on wild-type RNAP [5] (read-out: IC50, inhibition of formation of stable, heparin-resistant RNAP-promoter open complex, promoter DNA fragment) it was 0.8 ± 0.3 µM; in the test with bacterial RNAP, about 1 µM. The “inhibition of formation of stable, heparin-resistant RNAP-DNA complex” value at wild-type RNAP [5] (fork-junction DNA fragment (lacks positions −11 to +15 of template strand)) was “does not inhibit”. For the same compound, on wild-type RNAP [5] (nontemplate-strand oligonucleotide (positions −21 to +15)), the “inhibition of formation of stable, heparin-resistant RNAP-DNA complexes” value is listed as “does not inhibit”. Also, the “inhibition of open-complex formation with Myx^r RNAP” value in [6] is given as “abrogates inhibition”. The MIC with Enterobacter cloacae was at most 12.5 mg/L. The “inhibition of eukaryotic RNAP II” value in the test with eukaryotic RNAP II was “does not inhibit”.

For `C/C(=C\Cc1ccccc1)CC[C@@]1(O)C[C@H]2C[C@@H](C/C(C)=C/C/C=C/C/C(CC(=O)O)=C\C(=O)O2)O1` [Rip, ripostatin A], in the test with E. coli DH21f2tolC, the bacteriocidal activity result was “bacteriocidal”. In addition, the “effect on transcription initiation” value at wild-type RNAP [4] was “inhibits transcription initiation”. In addition, the “effect on interaction of RNAP with promoter DNA” value at wild-type RNAP [5] is “prevents interaction of RNAP with promoter DNA”. Moreover, the MIC (in the test with Staphylococcus aureus; in [7]) was at most 1 mg/L each time. Further, in the test with bacterial RNAP, the IC50 is about 0.8 µM. Moreover, the “inhibition of eukaryotic RNAP II” value with eukaryotic RNAP II is given as “does not inhibit”.

For `C/C=C/C/C=C(\C)C(O)CC/C(C)=C/C=C(\C)C(=O)c1c(O)cc([C@H](C)CC/C=C/NC(=O)OC)oc1=O` (stereo partly shown) [Cor, corallopyronin A], the MIC in test [8] is 1.6 mg/L (≈ 3.03 µM). The bacteriocidal activity entry in the test with E. coli DH21f2tolC was “bacteriocidal”. For the same compound, the “effect on transcription initiation” value at wild-type RNAP [4] was “inhibits transcription initiation”. For the same compound, the “effect on interaction of RNAP with promoter DNA” value on wild-type RNAP [5] is “prevents interaction of RNAP with promoter DNA”. For the same compound, the half-maximal inhibitory concentration (IC50) with bacterial RNAP was about 4 µM. In the test on eukaryotic RNAP II, the “inhibition of eukaryotic RNAP II” value is given as “does not inhibit”.

Regarding `CO[C@H]1/C=C/O[C@@]2(C)Oc3c(C)c(O)c4c(O)c(c(/C=N/N5CCN(C)CC5)c(O)c4c3C2=O)NC(=O)/C(C)=C\C=C\[C@H](C)[C@H](O)[C@@H](C)[C@@H](O)[C@@H](C)[C@H](OC(C)=O)[C@@H]1C` [Rif, rifampicin], the “cross-resistance of Myx^r mutants” value in test [1] (Myx^r mutants (Table 1)) was “do not exhibit cross-resistance”. This compound also gave an MIC in test [8] of 0.1 mg/L (≈ 0.122 µM).

The values are drawn from publication PMC2580802 (Cell, 2008).
